Patent US10874682B2, “Compositions and the use thereof for treating or preventing rosacea” (NESTLÉ SKIN HEALTH SA, priority 2016, dated 2020)

System: arachidonic acid-induced ear edema
Experiment: Arachidonic acid-induced mouse ear edema test, single topical application
Assay type: in vivo, Balb/c mice
Design: Mean ear edema: unit not given here
Conditions: indomethacin 5%, ivermectin 1%, diclofenac 1%; for Mean ear edema: single topical application on right ear with AA 4%; for Inhibition vs AA 4%: single topical application with AA 4%
Method: Example 1: Evaluation of the Anti-Inflammatory Activity of Ivermectin and Diclofenac after a Single Topical Application in the Arachidonic Acid-Induced Mouse Ear Edema Test on Balb/c Mice
Arachidonic acid is dissolved in a mixture of THF/Methanol at 4%.
Tested compounds were dissolved in arachidonic acid solution, at final concentration.
20 μl of the tested compound is dissolved in arachidonic acid solution and applied on the internal side of the right ear.
The ear thickness is measured at T=0 h, T+1 h, T+2 h, T+4 h.
THF/Methanol is used as vehicle control.
Indomethacin 5% is used as positive control and arachidonic acid at 4% in THF/Methanol is used as inductor of inflammation.

[1] = ear thickness measurement after 1 h
[2] = ear thickness measurement after 2 h
[3] = ear thickness measurement after 4 h

Row | Compound | Mean ear edema (1 h measurement) | Mean ear edema (2 h measurement) | Mean ear edema (4 h measurement) | Inhibition vs AA 4% (1 h measurement) | Inhibition vs AA 4% (2 h measurement) | Inhibition vs AA 4% (4 h measurement) | inhibition of the ear edema caused by arachidonic acid [1] [%] | inhibition of the ear edema caused by arachidonic acid [2] [%] | inhibition of the ear edema caused by arachidonic acid [3] [%]
1 | CCCCC/C=C\C/C=C\C/C=C\C/C=C\CCCC(=O)O [Arachidonic acid (AA), Arachidonic acid] | 18.8 | 16.2 | 13.4 | – | – | – | – | – | –
2 | COc1ccc2c(c1)c(CC(=O)O)c(C)n2C(=O)c1ccc(Cl)cc1 [indomethacin] | 1 | 1 | 1 | 94.7 | 93.8 | 92.5 | 95 | 94 | 92.5
3 | ivermectin | 8.2 | 8.6 | 6.2 | 56.4 | 46.9 | 53.7 | 56 | 47 | 54
4 | O=C(O)Cc1ccccc1Nc1c(Cl)cccc1Cl [diclofenac, 2-(2-(2,6-dichlorophenylamino)phenyl)acetic acid] | 6 | 4 | 3 | 68.1 | 75.3 | 77.6 | 68 | 75 | 78
